Test results: PubChem BioAssay (NCI)
“And” between values parts separate entries of the source, which are not always exact repeats. Identical values can stand only once.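 1) Cells in 96-well plates. 2) Compound, 48 h, 5 concentrations. 3) Linear interpolation between surrounding doses. 4) Unreached endpoint = highest concentration. The concentration for 50% growth inhibition is given as GI50. TGI: total growth inhibition.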

How the values were obtained:
Assay in all cases: NCI-60 cell line screen, 48 h
SK-MEL-2 melanoma = system: SK-MEL-2 melanoma
LOX IMVI melanoma = system: LOX IMVI melanoma
SN12C renal = system: SN12C renal
A498 renal = system: A498 renal
OVCAR-4 ovarian = system: OVCAR-4 ovarian
SF-268 CNS = system: SF-268 CNS
HOP-92 NSCLC = system: HOP-92 NSCLC
K-562 leukemia = system: K-562 leukemia

| SMILES | GI50 (SK-MEL-2 melanoma) | TGI (SK-MEL-2 melanoma) | GI50 (LOX IMVI melanoma) | TGI (LOX IMVI melanoma) [µM] | GI50 (SN12C renal) | TGI (SN12C renal) [µM] | GI50 (A498 renal) | TGI (A498 renal) | GI50 (OVCAR-4 ovarian) | TGI (OVCAR-4 ovarian) | GI50 (SF-268 CNS) | TGI (SF-268 CNS) [µM] | GI50 (HOP-92 NSCLC) | TGI (HOP-92 NSCLC) | GI50 (K-562 leukemia) | TGI (K-562 leukemia) [µM] |
| --- | --- | --- | --- | --- | --- | --- | --- | --- | --- | --- | --- | --- | --- | --- | --- | --- |
| CCCCCCCCCCCCCCCCCC(=O)[O][Sn]([CH2]CCC)([CH2]CCC)[CH2]CCC | 0.171 µM | 0.369 µM | 0.133 µM | 0.38 | 0.152 µM | 0.403 | 0.0904 µM | 0.232 µM | 0.108 µM | 0.245 µM | 0.141 µM | 0.337 | 0.0908 µM | 0.273 µM | 0.142 µM | > 100 |
| COC(=O)c1c2c(c[n+]([O-])c1C)C(=O)C(NCc1ccccc1)=CC2=O | 1.19 µM | 3.35 µM | 0.279 µM | 1.32 | 0.318 µM | 1.22 | 1.32 µM | 2.65 µM | 0.232 µM | 0.835 µM | 0.998 µM | 3.94 | 1.04 µM | 2.72 µM | 0.529 µM |  |
| CC(C)[C@@H]1NC(=O)[C@]2(C)CSC(=N2)c2csc(n2)CNC(=O)C[C@@H](/C=C/CCS)OC1=O | 0.049 µM | 1.49 µM | 0.131 µM | 0.355 | 0.403 µM | > 100 | 0.0156 µM | 0.114 µM | 0.416 µM | > 100 µM | 0.181 µM | > 100 | 0.137 µM | 0.677 µM | 0.273 µM | > 100 |
| CC(/C=C/C=C/C=C/C=C/C=C/C(O)=C1/C(=O)C(CCC(=O)O)N(C)C1=O)=C\C(C)C(OC1CC(O)C(O)C(C)O1)C(C)C (configuration not stated) |  | 12.9 µM |  | 11.5 |  | 13.6 |  | 10.7 µM |  | 40.1 µM |  | 14 |  | 8.66 µM |  | 15.6 |
| Clc1ccc(N/N=C/c2ccccn2)nc1 | 0.675 µM | > 100 µM | 0.326 µM | 18.6 | 0.469 µM | > 100 | 0.439 µM | 5.9 µM | 0.321 µM | > 100 µM | 0.365 µM | > 100 | 0.608 µM | > 100 µM | 0.383 µM | > 100 |
| Nc1nn(C(=O)Nc2ccc(Cc3ccccc3)cc2)c2ccc(Cl)cc12 | 16.5 µM | > 100 µM | 0.137 µM | 20.1 | 14.2 µM | 48.1 | 15.9 µM | 52.8 µM | 1.48 µM | 49 µM | 13.2 µM | 52.3 | 13.4 µM | 42 µM | 0.0343 µM | 16.9 |
| COc1ccc(Nc2nc(NCc3ccccc3)c3ccccc3n2)cc1 | 8.72 µM | 21.7 µM | 1.99 µM | 3.92 | 5.19 µM | 19.6 | 2.44 µM | 13.9 µM | 3.11 µM | 14.8 µM | 8.85 µM | 25.1 | 2.59 µM | 12.6 µM | 2.01 µM | 5.71 |
| Cc1ccccc1NC(=O)N/C(N)=N/c1nc2ccccc2s1 | > 100 µM | > 100 µM | 0.0759 µM | > 100 | 0.0853 µM | > 100 | 0.0261 µM | 0.142 µM | 0.667 µM | > 100 µM | 1.5 µM | > 100 |  | > 100 µM | 0.0327 µM | > 100 |
| Nc1ccccc1C#Cc1ccccc1C#Cc1ccccc1N | 11.3 µM | 30.2 µM | 7.31 µM | 20.9 | 11.4 µM | 24.5 | 6 µM | 19.8 µM | 23.3 µM | 80.9 µM | 10.6 µM | 37 | 3.62 µM | 15.6 µM | 2.01 µM | 12.8 |
| C=C1C(=O)O[C@H]2[C@H]1CC/C(COC(=O)NCc1c[nH]c3ccc(OC)cc13)=C\CC[C@@]1(C)O[C@@H]21 | 6.27 µM | 21.2 µM | 1.19 µM | 2.52 | 1.42 µM | 5.21 | 13 µM | 25.8 µM | 2.14 µM | 11.8 µM | 2.55 µM | 7.65 | 1.79 µM | 3.44 µM | 0.279 µM | 11.2 |
| Cc1cc(N2CCOCC2)nc(N(CCNc2ccnc3cc(Cl)ccc23)Cc2ccco2)n1 | 2.14 µM | 5.18 µM | 2.03 µM | 4.91 | 6.88 µM | 26.7 | 2.47 µM | 12.6 µM | 2.4 µM | 8.12 µM | 11.1 µM | 46 | 2.1 µM | 8.19 µM | 2.91 µM | > 100 |
| COc1cccc(C2=NN(C(C)=O)C(c3cc(OC)c(OC)c(OC)c3)C2)c1 (configuration not stated) | 23.8 µM | > 100 µM | 7.22 µM | > 100 | 5.69 µM | > 100 | 6.44 µM | > 30 µM | 6.88 µM | > 100 µM | 10.8 µM | > 100 | 14.9 µM | > 100 µM | 0.9 µM | > 84.5 |
| O=Cc1ncc(-c2ccc(C(F)(F)F)cc2)c(NC2CCCCCC2)n1 | > 10 µM | > 10 µM | > 10 µM | > 10 | > 10 µM | > 10 | > 10 µM | > 10 µM | > 10 µM | > 10 µM | > 10 µM | > 10 | > 10 µM | > 10 µM | > 10 µM | > 10 |
| Oc1ccc(Cl)cc1Cc1cc(Cl)cc(Cc2cc(Cl)ccc2O)c1O |  | 7.68 µM |  | 9.82 |  | 8.21 |  | 4.28 µM |  | 16.2 µM |  | 12 |  | 5.94 µM |  | 10.3 |
| CN(C)c1cc2c(Nc3ccc4nc(Cc5ccccc5)[nH]c4c3)ncnc2cn1 | > 16.3 µM | > 25 µM | > 17.4 µM | > 25 | > 16.1 µM | > 25 | > 13.9 µM | > 25 µM | > 20.4 µM | > 25 µM | > 23.4 µM | > 25 | > 25 µM | > 25 µM | > 19.8 µM | > 25 |
| S=C(Nc1ccc(-c2nc3ccccc3s2)cc1)Nc1ccccn1 | 22.7 µM | 50.3 µM | 18.2 µM | 39.4 | 22.9 µM | 63.6 | 19.8 µM | 44.7 µM | 37 µM | > 100 µM | 46.6 µM | > 100 | 16.7 µM | 64.1 µM | 27.6 µM | > 100 |
| COc1c(Nc2ncc(Cl)c(N[C@@H]3[C@H]4C=CC(C4)[C@@H]3C(N)=O)n2)ccc2c1CC[C@@H](N1CCOCC1)CC2 | 3.39 µM | 11.9 µM | 2.11 µM | 6.23 | 3.87 µM | 29.2 | 1.39 µM | 4.79 µM | 3.68 µM | 23 µM | 4.71 µM | 20.8 | 1.05 µM | 6.77 µM | 5.52 µM | 59.7 |
| O=c1oc2c(Br)c(O)c(Br)cc2c2ccccc12 |  | 62.7 µM |  | 68.9 |  | 84.4 |  | 58.5 µM |  | 89.9 µM |  | 69 |  | 74.6 µM |  | 50.9 |
| CCNC(=O)Nc1ccc(-c2nc3c(c(N4CCOC[C@@H]4C)n2)CCN(C2COC2)C3)cc1 | 0.295 µM and 0.392 µM | 3 µM and 3.43 µM | 0.411 µM and 0.329 µM | > 100 | 0.31 µM and 0.285 µM | > 100 | 0.0164 µM and 0.0305 µM | 0.114 µM and 0.2 µM | 0.154 µM and 0.259 µM | 1.71 µM and > 7.24 µM | 0.591 µM and 0.29 µM | > 100 | 0.043 µM and 0.0307 µM | 0.681 µM and 0.493 µM | 1.27 µM and 1.1 µM | > 100 |
| CCc1ccc(/C(C#N)=C/C=C/c2ccccc2)cc1 | 4.92 µM | > 100 µM | 10.5 µM | > 100 | 10.6 µM | > 100 | 2.19 µM | 39.3 µM | 18.4 µM | > 100 µM | 19.3 µM | > 100 | 2.28 µM | 78.8 µM | 0.882 µM | > 100 |
| NC(=O)Cc1ccccc1Oc1nccc(-c2c(-c3ccc(F)cc3)ncn2C2CCNCC2)n1 | > 25 µM | > 25 µM | > 25 µM | > 25 | > 25 µM | > 25 | > 25 µM | > 25 µM | > 25 µM | > 25 µM | > 25 µM | > 25 | > 25 µM | > 25 µM | > 25 µM | > 25 |
| Cc1oncc1C(=O)Nc1ccc(C(F)(F)F)cc1 | > 100 µM | > 100 µM | 19.1 µM | > 100 | > 100 µM | > 100 | 9.97 µM | 58.7 µM | 25 µM | > 100 µM | 23 µM | > 100 | 6.17 µM | 46 µM | 12.1 µM | > 100 |
| O=C1OCC2=C1C(c1cccc([N+](=O)[O-])c1)c1cc3c(cc1N2CCO)CCC3 (configuration not stated) | 2.8 µM | 48 µM | 0.286 µM | 8.29 | 0.339 µM | > 39.9 | 0.0684 µM | 0.376 µM | 2.03 µM | > 50 µM | 0.295 µM | 22.9 | 2.66 µM | > 50 µM | 0.0666 µM | > 50 |
